Experiments:
hPSCs [1] = assay: Extended propagation and karyotype analysis; format: cell-based, human
Description: hPSC culture—hPSC culture—hPSC lines HES-1, HES-2 (10), HADC100, HADC102 (36) and H7 (9) were cultured on human foreskin feeders in serum free medium as described (30, 87). hPSC culturing in suspension was performed as reported (31) with minor modifications of the culture medium that was composed of Neurobasal medium, 14% KO-SR, L-glutamine 2 mM, 50 units/ml penicillin, 50 μg/ml streptomycin, 1% nonessential amino acids (all from Invitrogen, Carlsbad, Calif., USA). The medium was supplemented with FGF2 20 ng/ml, and activin A 25 ng/ml (both from Peprotech, Rocky Hill, N.J., USA), and laminin 0.5 μg/ml (Sigma-Aldrich, St. Louis, Mo., USA). For hPSC culturing on mouse LN111, 3-D Culture Matrix Laminin I (CULTREX, TREVIGEN, #3446-005-01, Gaithersburg, Md., USA) was diluted to a concentration of 1 mg/ml. Tissue culture dishes were coated with LN111, incubated overnight at 37° C. to promote matrix gelling, and washed with PBS. hPSCs were cultured on LN111 in a chemically defined medium composed of DMEM/F12, B27 supplement (1:50), N2 supplement (1:100) 2 mM L-glutamine, 50 units/ml penicillin, 50 μg/ml streptomycin (all from Invitrogen), and supplemented with 20 ng/ml bFGF (Peprotech). The cells were cultured in 5% CO2, 5% O2 incubator They were passaged every 7 days as small clusters by treatment with 1 mg/ml collagenase type IV (Invitrogen), and plated in a medium containing 5 μM ROCK inhibitor. hPSC culture under naïve conditions was performed using the 5iLFA protocol (20).
Alkaline phosphatase activity detection and karyotyping—Detection of alkaline phosphatase activity was performed on hPSC colonies using the Alkaline Phosphatase Staining Kit II (Stemgent, Cambridge, Mass., USA) according to the manufacturer's instructions. Karyotype analysis, was performed on 3-4 day hPSC colonies.

hPSCs [2] = assay: Undifferentiated propagation and PGC differentiation of hPSCs on laminin; format: cell-based, human; conditions: HES-2 hPSCs
Description: LN-hPSCs were cultured on mouse LN111, 3-D Culture Matrix Laminin I (CULTREX, TREVIGEN, #3446-005-01, Gaithersburg, Md., USA). 0.175 ml diluted LN111 (1:14 to a coating concentration of 0.43 mg/ml) was used to coat a well of a 6-well culture dish, leaving a margin of 2-3 mm at the well edge (a final concentration of ˜8 microgram/cm^2). The coated dishes were incubated from 4 hours to 4 days, at 37° C., and washed with PBS before use. LN-hPSCs were cultured in a medium composed of DMEM/F12, B27 supplement (1:50), N2 supplement (1:100), 2 mM L-glutamine, 50 units/ml penicillin, 50 μg/ml streptomycin (all from Invitrogen), and supplemented daily with 20 ng/ml FGF2 (Peprotech). Cells were passaged every 5-6 days using 1.5 mg/ml collagenase type IV (Invitrogen). 5 μM ROCK inhibitor (Y-27632, Peprotech) was added for the first day after passaging.
hPSCs were cultured on human recombinant LN521 (BIOLAMINA, Sundbyberg, Sweden). Coating of culture dishes with hrLN521 was performed according to the manufacturer's instructions (Coating concentration ˜0.45 microgram/cm^2). Cells were cultured in the same medium used for culturing LN-hPSCs, and passaged with collagenase type IV.
PGC differentiation of hPSCs in suspension—LN-hPSCs and hPSCs cultured on hrLN-521 were dissociated into a single-cell suspension using TrypLE Select Enzyme (Invitrogen). Primed hPSCs were first dissociated from the MEF feeders by treatment with collagenase type IV, followed by dissociation into single cells by TrypLE Select Enzyme. 2000-3000 cells were seeded into a microwell of AggreWell™800 24-well plate (STEMCELL Technologies), and cultured as EBs in suspension, in PGCLC differentiation medium as described elsewhere (Irie et al., 2015).

“LN111: mouse LN111, 3-D Culture Matrix Laminin I (CULTREX, TREVIGEN), coating of culture dishes” was tested, and the extended undifferentiated propagation (hPSCs [1]; HADC100) was 6 passages, the extended undifferentiated propagation (hPSCs [1]; HADC102) was 8 passages and the “passages propagated while maintaining a normal karyotype” value (hPSCs [1]; HES-1 cells) was “at least 10 passages”. The “competence to initiate germ cell specification” value (hPSCs [2]) was “competent to initiate germ cell specification”.
